From patent publication US20260209260A1, “VECTORIZED NHC IRIDIUM(III) COMPLEXES AND USE THEREOF IN PHOTODYNAMIC THERAPY AND/OR DIAGNOSTIC” (CENTRE NATIONAL DE LA RECHERCHE SCIENTIFIQUE, priority 2022, published 2026)
Where two headings read alike, the source gives them in different places.

Tests used:
[1] = UV/Vis absorption spectra; format: physicochemical; conditions: room temperature; for λmax (nm) ε (M^−1 · cm^−1): air-saturated CH2Cl2 or CH2Cl2/MeOH (1:1), 50 μM, ε in brackets, sh = shoulder; for maximum absorption, lowest-lying bands in the visible region over 360 nm: CH2Cl2 or CH2Cl2/MeOH (1:1)
Method: UV/Vis absorption spectra were recorded at RT on solutions contained in quartz cuvettes (optical pathlength 1 cm, Hellma®) with a PerkinElmer® UV/VIS/NIR spectrophotometer Lambda 950 and a PerkinElmer® detector UV/VIS/NIR Accessory 2D Detector Module.

[2] = Lipophilicity: octanol-water partition coefficient, shake-flask method
Method: The octanol-water partition coefficients (P) of all the complexes were determined using a shake-flask method^8. Water (100 mL, distilled after milli-Q purification) and n-octanol (100 mL, Sigma Aldrich, ACS spectrophotometric grade, ≥99%) were shaken together for 24 h to allow saturation of both phases. Stock solutions of the compounds ([…]) were prepared in the aqueous phase. Aliquots (2 mL) of each of these stock solutions were then added to an equal volume of the n-octanol phase. The resultant biphasic solution was mixed for 15 min and then centrifuged (3000 tr/min, 5 min) to separate the phases. The concentrations of the complex in the organic and aqueous phases were then determined using UV absorbance spectroscopy (260 nm). The blank is the water saturated with n-octanol. Log P was defined as logarithm of the ratio of the concentrations of the complex in the organic and aqueous phases (values reported are the means of at least three separated determinations).
The Log P values have been determined by a classical shake-flask method.

[3] = test system: PC-3 prostate cancer cells (PSMA-negative); test: Cell viability assay (MTT), dark and blue light; format: cell-based, Human; conditions: for GI50: read-out: GI50; for Photosensitizing index (PI): PC3, dark vs blue light
Method: (§1) Cells were grown in humidified incubators at 37° C. in 5% CO2. Murine MC3T3 osteoblast and NIH-3T3 fibroblast cells-used as non-tumor cell models-were cultured in a-MEM medium and DMEM medium supplemented with 10% fetal bovine serum (FBS) and 1% Penicillin/Streptomycin (P/S) antibiotics, respectively. Human T24 bladder, MGHU3 bladder, Scaber bladder, A549 lung, MCF7 breast, MiaPaCa2 pancreas cancer cells were cultured in DMEM medium supplemented with 10% FBS and 1% P/S antibiotics. Human ASPC-1 pancreas, PC-3 prostate, DU-145 prostate, C4-2B prostate and 22rV1 prostate cancer cells were cultured in RPMI medium supplemented with 10% FBS and 1% P/S antibiotics. Human Hela cervix and HepG2 liver cancer cells were cultured EMEM medium supplemented with 10% FBS and 1% P/S antibiotics.
(§2) MTT reagent (3-(4,5-dimethylthiazol-2-yl)-2,5-diphenyltetrazolium bromide) was used to determine cell death as originally described by Mosmann. Briefly, cells were seeded from 5,000 to 10,000 cells/well in 24-well plates (1 mL) depending on the cell type and allowed to attach overnight. The complexes were prepared in DMSO. The concentration of the complexes was calculated based on the elemental composition of the complexes determined by the elemental analyses. All cell viability experiments were carried out with a fixed concentration of 0.1% (v/v) DMSO. After 72 h of treatment, cells were incubated at 37° C. and 5% CO2 with 25 μL of MTT solution (5 mg/ml; Sigma-Aldrich) in 24-well plates for 3 to 4 h. After solubilization with 500 μL of DMSO, formazan was quantified spectrophotometrically with a microplate reader at 570 nm absorbance (ClarioSTAR, BMG LabTech). […] All the results were calculated from data obtained in at least three independent experiments performed in triplicate.
Irradiation was conducted using an in-house device, a series of blue light LEDs selected according to the absorption spectra of the compounds at 458 nm wavelength with an emitted power of 9.6 Watts. The light fluence was measured at 458 nm with an optical power meter Thorlabs PM100A at different distances between the cell layer and the light source (5 and 10 cm).
(§3) Two sets of experiments were conducted in parallel for each complex to be studied:
(§4) 1. The cells were incubated with the different complexes (in the dark) for 72 h.
(§5) 2. The cells were incubated for 8 h with the different complexes (in the dark), then irradiated for 10 min, followed by an incubation in the dark up to 72 h.

[4] = test system: NIH-3T3 fibroblast cells (non-tumor); test: Cell viability assay (MTT), dark and blue light; format: cell-based, Murine; conditions: for GI50: read-out: GI50; for Photosensitizing index (PI): NIH-3T3, dark vs blue light
Method: as §1, with “Human ASPC-1 pancreas, PC-3 prostate, DU-145 prostate, C4-2B prostate and 22rV1 prostate cancer cells were cultured in RPMI medium supplemented with 10% FBS and 1% P/S antibiotics.” left out
as §2, §3, §4, §5

[5] = Emission lifetime measurement; format: physicochemical
Method: Fluorescence lifetime measurements were performed by an Edinburgh FLS920 spectrofluorimeter equipped with a TCC900 card for data acquisition in time-correlated single-photon counting experiments (0.5 ns time resolution) with a D2 lamp and an LDH—P-C-405 pulsed diode laser. The estimated experimental error is 2 nm on the band maximum (5% on the lifetime, 10% on the fluorescence quantum yield).
The emission lifetimes of biotin-vectorized complexes (I-a) to (I-l) range from 138 ns to 411 ns, among them, the lifetime of biotin-vectorized complexes (I-c), (I-e), (I-k) are 411, 224, and 322 ns respectively. The emission lifetimes of FTS-vectorized complexes (II-a) to (II-l) range from 167 ns to 486 ns, among them, the lifetime of FTS-vectorized complexes (II-c) and (II-k) are 319 and 486 ns respectively. The emission lifetimes of PSMA-vectorized complexes (III-a) to (III-l) are in the range of 159-649 ns, among them, the lifetime of complexes (III-a) and (III-k) were 248 and 649 ns, respectively. The emission lifetimes of Fc-vectorized complexes (IV-a) to (IV-l) are in the range of 178-228 ns.

[6] = Luminescence emission spectra and quantum yield; format: physicochemical; conditions: for ΦP emission phosphorescence quantum yield: room temperature, reference POPOP in hexane or rhodamine B in ethanol
Method: Fluorescence and phosphorescence emission spectra were obtained with a HORIBA JOBIN YVON, fluromax-4 and spectrofluorometer.
Luminescence quantum yields were measured according to the method of Demas and Crosby, on solution samples at RT. The quantum yield is defined as: […]
Where ΦP is the quantum yield of the sample, ΦR is the know quantum yield of the reference standard. […].
The luminescence spectra of vectorized iridium(III) complexes were determined in CH2Cl2 at room temperature (Table 3).

[7] = n-octanol/water, shake-flask, mean of at least three determinations

Structure (SMILES) | λmax (nm) ε (M^−1 · cm^−1) [1] | Log P [2] | GI50 ([3]; PC3, blue light) | Photosensitizing index (PI) [3] | GI50 ([3]; PC3, dark) | GI50 ([4]; NIH-3T3, blue light) | Photosensitizing index (PI) [4] | GI50 ([4]; NIH-3T3, dark) | τ1 emission lifetime [5] | λem ([6]; CH2Cl2, room temperature, λexc 365 nm or 470 nm) | ΦP emission phosphorescence quantum yield [6] | maximum absorption, lowest-lying bands in the visible region over 360 nm [1] | SI (vs NIH-3T3) ([3]; PC3, blue light) | SI (vs NIH-3T3) ([3]; PC3, dark) | Log P [2, 7]
COC(=O)c1ccc2[n+](c1)[Ir-3]13([c]4ccccc4-2)([c]2ccccc2-c2ccc(C(=O)OC)c[n+]21)[c]1n(CCCNC(=O)[c-]2cccc2)cc[n+]1-c1cccc[n+]13.F[P-](F)(F)(F)(F)F.[Fe+2].c1cc[cH-]c1 [IV-e] | 312 (sh) (27925), 363 (sh) (7290), 434 (6530) nm (M^−1 · cm^−1) | 1.37 ± 0.05 | 0.54 µM | 18.3 | 9.9 µM | 4.2 µM | 7.7 | 32.3 µM | 200 ns | 528 nm | 0.17% |  |  |  | 
CC(C)=CCC/C(C)=C/CC/C(C)=C/CSc1ccccc1C(=O)NCCCn1cc[n+]2[c]1[Ir-3]13([c]4cc(C)ccc4-c4cccc[n+]41)([c]1cc(C)ccc1-c1cccc[n+]13)[n+]1ccccc1-2.F[P-](F)(F)(F)(F)F [II-b] | 306 (sh) (15875), 382 (4560) nm (M^−1 · cm^−1) | 1.68 ± 0.02 |  |  |  |  |  |  | 167 ns |  | 0.4% | around 380 nm |  |  | 
COC(=O)c1cccc2[c]1[Ir-3]13([c]4c(C(=O)OC)cccc4-c4cccc[n+]41)([c]1n(CCCNC(=O)c4ccccc4SC/C=C(\C)CC/C=C(\C)CCC=C(C)C)cc[n+]1-c1cccc[n+]13)[n+]1ccccc1-2.F[P-](F)(F)(F)(F)F [II-d] | 372 (4535) nm (M^−1 · cm^−1) | 1.40 ± 0.02 |  |  |  |  |  |  | 201 ns |  | 0.9% | around 370 nm |  |  | 
COC(=O)c1ccc2[c](c1)[Ir-3]13([c]4cc(C(=O)OC)ccc4-c4cccc[n+]41)([c]1n(CCCNC(=O)[c-]4cccc4)cc[n+]1-c1cccc[n+]13)[n+]1ccccc1-2.F[P-](F)(F)(F)(F)F.[Fe+2].c1cc[cH-]c1 [IV-c] | 304 (sh) (28570), 353 (sh) (7050), 399 (5315), 427 (sh) (3660) nm (M^−1 · cm^−1) | 0.72 ± 0.03 |  | 16.8 |  | 9.3 µM | 3.5 |  | 195 ns |  | 0.04% |  | 10.7 | 2.2 | 
CC(C)=CCC/C(C)=C/CC/C(C)=C/CSc1ccccc1C(=O)NCCCn1cc[n+]2[c]1[Ir-3]13([c]4ccccc4-c4cccc[n+]41)([c]1ccccc1-c1cccc[n+]13)[n+]1ccccc1-2.F[P-](F)(F)(F)(F)F [II-a] | 308 (sh) (14540), 380 (4505) nm (M^−1 · cm^−1) | 1.70 ± 0.08 |  |  |  |  |  |  | 210 ns |  | 0.5% | around 380 nm |  |  | 
COC(=O)c1ccc2[c](c1)[Ir-3]13([c]4cc(C(=O)OC)ccc4-c4cccc[n+]41)([c]1n(CCCNC(=O)c4ccccc4SC/C=C(\C)CC/C=C(\C)CCC=C(C)C)cc[n+]1-c1cccc[n+]13)[n+]1ccccc1-2.F[P-](F)(F)(F)(F)F [II-c] | 310 (sh) (21710), 355 (5105), 398 (3925) nm (M^−1 · cm^−1) | 1.08 ± 0.01 |  |  |  |  |  |  | 319 ns |  | 4.6% |  |  |  | 
F[P-](F)(F)(F)(F)F.O=C(CCCC[C@@H]1SC[C@@H]2NC(=O)N[C@@H]21)NCCCn1cc[n+]2[c]1[Ir-3]13([c]4ccccc4-c4ccc(C(=O)O)c[n+]41)([c]1ccccc1-c1ccc(C(=O)O)c[n+]13)[n+]1ccccc1-2 [I-f] |  |  |  |  |  |  |  |  |  |  |  |  |  |  | −0.68 ± 0.07
F[P-](F)(F)(F)(F)F.O=C(O)c1ccc2[n+](c1)[Ir-3]13([c]4ccccc4-2)([c]2ccccc2-c2ccc(C(=O)O)c[n+]21)[c]1n(CCCNC(=O)[c-]2cccc2)cc[n+]1-c1cccc[n+]13.[Fe+2].c1cc[cH-]c1 [IV-f] | 304 (sh) (22560), 410 (4150) nm (M^−1 · cm^−1) |  |  |  |  |  |  |  | 202 ns |  | 0.12% |  |  |  | 1.08 ± 0.03
